Experimental data: PMC10874727, “The dual GGDEF/EAL domain enzyme PA0285 is a Pseudomonas species housekeeping phosphodiesterase regulating early attachment and biofilm architecture” (The Journal of Biological Chemistry, 2024)

Molecular target: T1, PA0285_317-760 (Pseudomonas aeruginosa, UniProt Q9I6K5)
T1 construct: gene PA0285; GGDEF/EAL tandem domains, residues 317-760 of 760; transmembrane and PAS domains absent; GST tag cleaved by thrombin; E. coli BL21(DE3); monomer (copies word: monomeric)
T1 sequence (Q9I6K5 entry or part of it): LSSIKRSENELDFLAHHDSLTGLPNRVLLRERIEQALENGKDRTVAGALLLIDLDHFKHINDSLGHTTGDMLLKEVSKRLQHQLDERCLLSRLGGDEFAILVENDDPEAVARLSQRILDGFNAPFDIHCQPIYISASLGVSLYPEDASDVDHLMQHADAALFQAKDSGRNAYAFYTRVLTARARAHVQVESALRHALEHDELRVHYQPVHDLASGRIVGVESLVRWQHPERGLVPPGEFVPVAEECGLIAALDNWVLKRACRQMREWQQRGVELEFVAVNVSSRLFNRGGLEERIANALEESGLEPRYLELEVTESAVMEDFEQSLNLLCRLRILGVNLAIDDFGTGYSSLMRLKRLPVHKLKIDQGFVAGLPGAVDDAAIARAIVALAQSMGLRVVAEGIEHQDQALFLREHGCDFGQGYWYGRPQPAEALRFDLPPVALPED
Assay: HDX-MS
Format: binding
Details: 2.5 mM GTP, 1 mM MgCl2, 1 mM MnCl2, pH 7.5, 25 °C; site: GGDEF domain; no diguanylate cyclase turnover

## Nc1nc2c(ncn2[C@@H]2O[C@H](COP(=O)(O)OP(=O)(O)OP(=O)(O)O)[C@@H](O)[C@H]2O)c(=O)[nH]1 [GTP]
  HDX-MS: the neighboring helices exhibited reduced HDX, substantiating GTP binding
